Results on 27 compounds are retold here after patent US20220296595A1, “CDK INHIBITORS” (QILU REGOR THERAPEUTICS INC., priority 2019, published 2022).

Like-named read-outs stand apart in the source and are kept apart here.

For one test, the target named is T1, CDK4/CyclinD1 (Homo sapiens, UniProt P11802).
T1 construct: purchased Thermofisher PR8064A
In words: Assay for inhibition of CDK4/CyclinD1 (Caliper microfluidic kinase assay). The format is biochemical. The method in brief: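 Caliper microfluidic mobility-shift assay tracking phosphorylation of 1 μM FL-34 peptide by 1 nM CDK4/CyclinD1 with 200 μM ATP in HEPES pH 7.5 buffer with 10 mM MgCl2. Reaction ran 3 h at room temperature, was stopped with EDTA, and IC50 came from a 4-parameter sigmoidal fit.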

The target of a further test is T2, CDK6/CyclinD3 (Homo sapiens, UniProt Q00534).
T2 construct: purchased Carna 04-107
T2 sequence (Q00534 whole entry): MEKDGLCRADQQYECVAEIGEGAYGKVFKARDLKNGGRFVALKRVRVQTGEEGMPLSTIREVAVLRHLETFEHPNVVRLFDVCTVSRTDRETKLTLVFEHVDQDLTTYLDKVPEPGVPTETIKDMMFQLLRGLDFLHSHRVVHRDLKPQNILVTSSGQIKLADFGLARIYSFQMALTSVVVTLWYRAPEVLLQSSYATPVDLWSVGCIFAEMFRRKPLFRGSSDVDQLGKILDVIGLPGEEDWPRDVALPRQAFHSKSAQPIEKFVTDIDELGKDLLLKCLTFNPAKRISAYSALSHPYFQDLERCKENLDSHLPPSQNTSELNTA
T2 sequence (P30281 whole entry partner): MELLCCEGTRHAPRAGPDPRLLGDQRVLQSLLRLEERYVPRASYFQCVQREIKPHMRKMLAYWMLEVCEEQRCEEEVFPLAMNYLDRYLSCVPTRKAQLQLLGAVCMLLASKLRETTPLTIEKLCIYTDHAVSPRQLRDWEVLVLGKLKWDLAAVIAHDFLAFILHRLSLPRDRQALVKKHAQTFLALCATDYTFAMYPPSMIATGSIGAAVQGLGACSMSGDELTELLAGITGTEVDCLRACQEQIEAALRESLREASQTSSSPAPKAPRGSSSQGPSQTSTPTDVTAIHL
In words: Assay for inhibition of CDK6/CyclinD3 (Caliper microfluidic kinase assay). Type of test: biochemical. The method, boiled down: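 Caliper mobility-shift readout of FAM-labelled peptide (FL-34, 1 μM) phosphorylation by 2 nM CDK6/CyclinD3 at 300 μM ATP in HEPES pH 7.5 buffer with MgCl2, DTT; 3 h at room temperature, EDTA stop. IC50 from 4-parameter sigmoidal fit.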

The target of another test is T3, CDK2/CyclinE1 (Homo sapiens, UniProt P24941).
T3 construct: purchased SignalChem C29-18G
As to the kind of experiment: Assay for inhibition of CDK2/CyclinE1 (Caliper microfluidic kinase assay). The format is biochemical. Conditions: read-out: CDK2 IC50. The method, boiled down:
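Caliper microfluidic mobility-shift assay: 5 nM CDK2/CyclinE1, 100 μM ATP, 5 μM FL-18 peptide (5-FAM-QSPKKG-NH2) in pH 7.5 HEPES buffer with MgCl2, DTT, BSA, Triton X-100. Incubated 3 hours at room temperature, EDTA-stopped; IC50 from 4-parameter sigmoidal fit.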

In the next test the test system is T47D breast cancer cells. As to the kind of experiment: Anti-proliferation assay in T47D cell (Cyquant, day 6). The format is cell-based, human. Conditions: Homo sapiens, T47D, anti-proliferation, T47D cells; read-out: T47D IC50. The method, boiled down: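 Cells were grown in RPMI 1640 with 10% FBS at 37 °C and dosed the day after plating at ten concentrations, 10 μM to 0.51 nM in 3-fold steps. CyQuant fluorescence (ex 485/em 535 nm) was read on day 6. IC50 was fitted from baseline-subtracted viability curves, with the baseline read after overnight culture.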

The subject of test [1] is phosphorylation of Retinoblastoma Protein (pRb Ser807/811 or Ser780) in T47D cells. In words: Inhibition of phosphorylation of retinoblastoma protein (pRb) in T47D cell (ELISA). The format is cell-based, human. Conditions: Homo sapiens, T47D, read-out: Phospho T47D Ser807 IC50, pRb Ser807 phosphorylation, T47D cells. The method, boiled down:
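T47D cells in RPMI 1640 + 10% FBS, adhered overnight, then treated 24 h with 3-fold compound titrations (top concentration […]). Lysates assayed by sandwich ELISA for pRb Ser807/811 or Ser780 with HRP/TMB detection. IC50 from 4-parameter sigmoidal fit.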

T1 sequence (P11802 whole entry): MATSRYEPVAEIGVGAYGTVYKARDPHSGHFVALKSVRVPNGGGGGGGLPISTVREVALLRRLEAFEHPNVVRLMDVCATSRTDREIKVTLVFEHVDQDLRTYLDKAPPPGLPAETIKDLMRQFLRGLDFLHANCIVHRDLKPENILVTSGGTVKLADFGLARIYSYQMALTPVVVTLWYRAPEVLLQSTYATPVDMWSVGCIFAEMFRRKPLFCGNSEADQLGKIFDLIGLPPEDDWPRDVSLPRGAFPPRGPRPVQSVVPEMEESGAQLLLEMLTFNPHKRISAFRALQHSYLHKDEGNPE
T1 sequence (P24385 whole entry partner): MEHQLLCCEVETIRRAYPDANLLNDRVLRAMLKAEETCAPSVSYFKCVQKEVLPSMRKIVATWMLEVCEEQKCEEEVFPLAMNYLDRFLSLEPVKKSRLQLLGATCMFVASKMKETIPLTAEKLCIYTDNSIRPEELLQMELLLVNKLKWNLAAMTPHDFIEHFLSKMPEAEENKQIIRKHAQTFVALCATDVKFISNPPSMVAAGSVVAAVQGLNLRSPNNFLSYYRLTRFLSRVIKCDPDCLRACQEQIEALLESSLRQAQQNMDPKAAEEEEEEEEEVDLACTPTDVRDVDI

Take `COc1nc(-c2nc(Nc3ccc(N4CCOCCC4=O)cn3)ncc2F)cc2c1nc(C)n2C(C)C` [compound 73]: the IC50 was under 0.01 µM against CDK4/CyclinD1 (CDK4/CyclinD1); 0.01 to 0.1 µM against CDK6/CyclinD3 (CDK6/CyclinD3); over 1 µM on CDK2/CyclinE1 (CDK2/CyclinE1); 0.5 to 1 µM in the test on T47D breast cancer cells; under 0.1 µM in test [1].
On to `COc1nc(-c2nc(Nc3ccc(N4CCCOCC4=O)cn3)ncc2F)cc2c1nc(C)n2C(C)C` [compound 74], for which the IC50 is under 0.01 µM against CDK4/CyclinD1 (CDK4/CyclinD1); 0.01 to 0.1 µM against CDK6/CyclinD3 (CDK6/CyclinD3); over 1 µM at CDK2/CyclinE1 (CDK2/CyclinE1); 0.1 to 0.5 µM in the test with T47D breast cancer cells; 0.1 to 0.5 µM in test [1].
As for `COc1nc(-c2ccnc(Nc3ccc(N4CCOCC4=O)cn3)n2)cc2c1nc(C)n2C(C)C` [compound 77], the IC50 on CDK4/CyclinD1 (CDK4/CyclinD1) was under 0.01 µM; at CDK6/CyclinD3 (CDK6/CyclinD3), 0.01 to 0.1 µM; at CDK2/CyclinE1 (CDK2/CyclinE1), 0.1 to 1 µM; in the test on T47D breast cancer cells, 0.1 to 0.5 µM; in test [1], under 0.1 µM.
For `COc1nc(-c2nc(Nc3ccc(N4CCOCC4=O)cn3)ncc2F)cc2c1ncn2C(C)C` [compound 78], in that order: under 0.01 µM, 0.01 to 0.1 µM, 0.1 to 1 µM, under 0.1 µM and under 0.1 µM.
In the same order, the values of `COc1nc(-c2ccnc(Nc3ccc(C(=O)N4CCC(NC5CC5)C4)cc3)n2)cc2c1ncn2C(C)C` (stereo not drawn) [compound 80] are under 0.01 µM, 0.01 to 0.1 µM, under 0.01 µM, 0.1 to 0.5 µM and under 0.1 µM.
In the same order, the values of `COc1nc(-c2nc(Nc3ccc(N4CCOCC4=O)cn3)ncc2Cl)cc2c1nc(C)n2C(C)C` [compound 83] are under 0.01 µM, under 0.01 µM, 0.1 to 1 µM, under 0.1 µM and under 0.1 µM.
Regarding `COc1nc(-c2ccnc(Nc3ccc(N4CCC(N(C)C)CC4=O)cn3)n2)cc2c1ncn2C(C)C` (stereo not drawn) [compound 91], the half-maximal inhibitory concentration (IC50) at CDK4/CyclinD1 (CDK4/CyclinD1) is under 0.01 µM; against CDK6/CyclinD3 (CDK6/CyclinD3), under 0.01 µM; on CDK2/CyclinE1 (CDK2/CyclinE1) it was 0.1 to 1 µM; with T47D breast cancer cells, under 0.1 µM; in test [1], under 0.1 µM.
Take `COc1nc(-c2nc(Nc3ccc(N4CCCCC4=O)cn3)ncc2F)cc2c1nc(C)n2C(C)C` [compound 93]: the IC50 is under 0.01 µM on CDK4/CyclinD1 (CDK4/CyclinD1); 0.01 to 0.1 µM against CDK6/CyclinD3 (CDK6/CyclinD3); over 1 µM on CDK2/CyclinE1 (CDK2/CyclinE1); 0.1 to 0.5 µM with T47D breast cancer cells; 0.1 to 0.5 µM in test [1].
For the compound `COc1nc(-c2nc(Nc3ccc(N4CCC(N(C)C)CC4)cn3)ncc2F)cc2c1nc(C)n2C(C)C` [compound 94], the IC50 against CDK4/CyclinD1 (CDK4/CyclinD1) is under 0.01 µM; against CDK6/CyclinD3 (CDK6/CyclinD3), 0.01 to 0.1 µM; at CDK2/CyclinE1 (CDK2/CyclinE1) it was over 1 µM; in the test on T47D breast cancer cells, under 0.1 µM; in test [1], 0.1 to 0.5 µM.
For `COc1nc(-c2nc(Nc3ccc(N4CCOCC4=O)cn3)ncc2F)cc2c1nc(C)n2C(C)C` [compound 98], in that order: under 0.01 µM, 0.01 to 0.1 µM, over 1 µM, under 0.1 µM and under 0.1 µM.
In the same order, the values of `COc1nc(-c2ccnc(Nc3ccc(N4CCC(N5CC(F)C5)CC4=O)cn3)n2)cc2c1ncn2C(C)C` (stereo not drawn) [compound 99] are under 0.01 µM, 0.01 to 0.1 µM, 0.1 to 1 µM, under 0.1 µM and under 0.1 µM.
For `COc1nc(-c2nc(Nc3ccc(N4CCN(C)CC4)cn3)ncc2F)cc2c1nc(C)n2C(C)C` [compound 103], in that order: 0.01 to 0.1 µM, 0.01 to 0.1 µM, over 1 µM, 0.1 to 0.5 µM and under 0.1 µM.
On to `COc1nc(-c2ccnc(Nc3ccc(N4CC5CC4CN5)cn3)n2)cc2c1ncn2C(C)C` (stereo not drawn) [compound 109], for which the IC50 against CDK4/CyclinD1 (CDK4/CyclinD1, 200 μM ATP) was under 0.01 µM; against CDK6/CyclinD3 (CDK6/CyclinD3, 300 μM ATP) it was 0.01 to 0.1 µM; at CDK2/CyclinE1 (CDK2/CyclinE1, 100 μM ATP) it was over 1 µM; in the test with T47D breast cancer cells, under 0.1 µM; in test [1], under 0.1 µM.
As to `COc1nc(-c2nc(Nc3ccc(N4CCNCC4=O)cc3F)ncc2F)cc2c1ncn2C(C)C` [compound 111], the half-maximal inhibitory concentration (IC50) at CDK4/CyclinD1 (CDK4/CyclinD1, 200 μM ATP) was under 0.01 µM; against CDK6/CyclinD3 (CDK6/CyclinD3, 300 μM ATP), 0.01 to 0.1 µM; at CDK2/CyclinE1 (CDK2/CyclinE1, 100 μM ATP) it was 0.01 to 0.1 µM; in the test on T47D breast cancer cells, 0.1 to 0.5 µM; in test [1], 0.1 to 0.5 µM.
As for `COc1nc(-c2nc(Nc3ccc(N4CCNCCC4=O)cn3)ncc2F)cc2c1nc(C)n2C(C)C` [compound 112], the IC50 was under 0.01 µM on CDK4/CyclinD1 (CDK4/CyclinD1, 200 μM ATP); 0.01 to 0.1 µM at CDK6/CyclinD3 (CDK6/CyclinD3, 300 μM ATP); over 1 µM at CDK2/CyclinE1 (CDK2/CyclinE1, 100 μM ATP); under 0.1 µM with T47D breast cancer cells; 0.1 to 0.5 µM in test [1].
Consider `COc1nc(-c2nc(Nc3ccc(N4CCCNCC4=O)cn3)ncc2F)cc2c1nc(C)n2C(C)C` [compound 113], for which the IC50 is under 0.01 µM against CDK4/CyclinD1 (CDK4/CyclinD1, 200 μM ATP); 0.01 to 0.1 µM against CDK6/CyclinD3 (CDK6/CyclinD3, 300 μM ATP); 0.1 to 1 µM at CDK2/CyclinE1 (CDK2/CyclinE1, 100 μM ATP); 0.1 to 0.5 µM in the test on T47D breast cancer cells; 0.1 to 0.5 µM in test [1].
Turning to `COc1nc(-c2nc(Nc3ccc(N4CCNCC4=O)c(F)c3)ncc2F)cc2c1ncn2C(C)C` [compound 115], the IC50 on CDK4/CyclinD1 (CDK4/CyclinD1, 200 μM ATP) was under 0.01 µM; against CDK6/CyclinD3 (CDK6/CyclinD3, 300 μM ATP) it was 0.01 to 0.1 µM; on CDK2/CyclinE1 (CDK2/CyclinE1, 100 μM ATP) it was 0.01 to 0.1 µM; in the test on T47D breast cancer cells it was 0.1 to 0.5 µM; in test [1] it was 0.1 to 0.5 µM.
`COc1nc(-c2ccnc(Nc3ccc(N4CCNCC4=O)c(F)c3)n2)cc2c1ncn2C(C)C` [compound 116]: the 50% inhibitory concentration (IC50) was under 0.01 µM on CDK4/CyclinD1 (CDK4/CyclinD1, 200 μM ATP); 0.01 to 0.1 µM against CDK6/CyclinD3 (CDK6/CyclinD3, 300 μM ATP); 0.01 to 0.1 µM at CDK2/CyclinE1 (CDK2/CyclinE1, 100 μM ATP); 0.1 to 0.5 µM in the test with T47D breast cancer cells; under 0.1 µM in test [1].
For `COc1nc(-c2ccnc(Nc3ccc(N4CCC(C)(N)C4)cn3)n2)cc2c1ncn2C(C)C` (stereo not drawn) [compound 117], the IC50 was 0.01 to 0.1 µM against CDK4/CyclinD1 (CDK4/CyclinD1, 200 μM ATP); 0.01 to 0.1 µM against CDK6/CyclinD3 (CDK6/CyclinD3, 300 μM ATP); over 1 µM on CDK2/CyclinE1 (CDK2/CyclinE1, 100 μM ATP); 0.1 to 0.5 µM in the test with T47D breast cancer cells; 0.1 to 0.5 µM in test [1].
Regarding `COc1nc(-c2ccnc(Nc3ccc(N4CCC(C)(N)CC4)cn3)n2)cc2c1ncn2C(C)C` [compound 118], the IC50 is under 0.01 µM at CDK4/CyclinD1 (CDK4/CyclinD1, 200 μM ATP); 0.01 to 0.1 µM at CDK6/CyclinD3 (CDK6/CyclinD3, 300 μM ATP); over 1 µM at CDK2/CyclinE1 (CDK2/CyclinE1, 100 μM ATP); 0.1 to 0.5 µM in the test with T47D breast cancer cells; under 0.1 µM in test [1].
In the same order, the values of `COc1nc(-c2ccnc(Nc3ccc(N4CCN(CCF)CC4=O)cn3)n2)cc2c1ncn2C(C)C` [compound 122] are under 0.01 µM, 0.01 to 0.1 µM, 0.1 to 1 µM, under 0.1 µM and under 0.1 µM.
For `COc1nc(-c2ccnc(Nc3ccc(N4CCN(CCF)CC4)cn3)n2)cc2c1ncn2C(C)C` [compound 123], in that order: under 0.01 µM, 0.01 to 0.1 µM, over 1 µM, 0.1 to 0.5 µM and 0.1 to 0.5 µM.
For `COc1nc(-c2nc(Nc3ccc(N4CCN(CCF)CC4=O)cn3)ncc2F)cc2c1ncn2C(C)C` [compound 126], in that order: under 0.01 µM, 0.01 to 0.1 µM, 0.1 to 1 µM, 0.1 to 0.5 µM and 0.1 to 0.5 µM.
Regarding `COc1nc(-c2nc(Nc3ccc(N4CCN(C5COC5)CC4=O)cn3)ncc2F)cc2c1ncn2C(C)C` [compound 129], the IC50 at CDK4/CyclinD1 (CDK4/CyclinD1, 200 μM ATP) is under 0.01 µM; on CDK6/CyclinD3 (CDK6/CyclinD3, 300 μM ATP), 0.01 to 0.1 µM; on CDK2/CyclinE1 (CDK2/CyclinE1, 100 μM ATP), over 1 µM; with T47D breast cancer cells, 0.1 to 0.5 µM; in test [1] it was under 0.1 µM.
In the same order, the values of `COc1nc(-c2nc(Nc3ccc(N4CCN(C5COC5)CC4=O)cn3)ncc2F)cc2c1nc(C)n2C(C)C` [compound 131] are under 0.01 µM, 0.01 to 0.1 µM, over 1 µM, 0.1 to 0.5 µM and 0.1 to 0.5 µM.
In the same order, the values of `CCN1CCN(c2ccc(Nc3ncc(F)c(-c4cc5c(ncn5C(C)C)c(OC)n4)n3)nc2)C(=O)C1` [compound 132] are under 0.01 µM, 0.01 to 0.1 µM, over 1 µM, 0.1 to 0.5 µM and under 0.1 µM.
In the same order, the values of `CC(C)c1cnn2ccc(-c3ccnc(Nc4ccc(N5CC(N(C)C)CCC5=O)cn4)n3)cc12` (stereo not drawn) [compound 156] are 0.01 to 0.1 µM, 0.1 to 1 µM, 0.01 to 0.1 µM, 0.1 to 0.5 µM and under 0.1 µM.

A word on the IC50: it is the concentration needed to halve the response being measured.
